Patent publication US9290427B2, “Anti-invasive compounds” (Universiteit Gent, priority 2012, dated 2016)
Like-named read-outs stand apart in the source and are kept apart here.

Columns and labels:
[1] = test system: MCF-7/6 mammary carcinoma cells; parameters: unit not given here; conditions: training set compounds 1-34, Indo-Belgian screening program; class = log cmin, lowest concentration with invasion grade I or II; cited from earlier work
[2] = test system: MCF-7/6 mammary carcinoma cells; experiment: chick heart invasion assay; format: cell-based, human; parameters: unit not given here; conditions: for anti-invasive activity class act.: validation set, in vitro; for Actual in vitro activity class: compounds 37-51, Table 11; for Actual class: training set compounds 37-51, class = log cmin, lowest concentration with invasion grade I or II
From the text: “Anti-invasive” or “anti-invasive activity” is the ability to inhibit the invasiveness of tumor cells. Invasion by tumor cells is defined as the progressive occupation and destruction of their environment, and is the result of matrix degradation and directional cell motility. Anti-invasive activity of a compound is the ability to inhibit or block invasion, and can be assessed by counting the number of invading cells, by the depth of their invasion and/or by the amount of environmental destruction. Many assays in vitro can be applied to test for anti-invasive activity (for a complete list see Bracke et al. 2008). The three most popular ones are: • Chick heart invasion assay (Bracke et al., 2001, see details below). The cut-off value is between grade II (non-invasive) and grade III (invasive). […] Collagen gels, prepared on the bottom of plastic wells are covered with a test cell suspension, and incubated with liquid culture medium for 24 h. Invasion is evaluated with an inverted phase-contrast microscope, and is based on the percentage of cells showing extensions in the gel. […] Matrigel is a mixture of basement membrane components, and is applied as a semi-solid layer on top a filter with pores allowing the transgression of cells. The test cell suspension is seeded on top of the gel, and incubated for 1 day in a two-compartment chamber system. Invasion is then evaluated via the percentage of cells that are attached to the lower side of the filter.
In the chick heart invasion assay cancer cells are confronted with a fragment of normal tissue, so as not to neglect the contribution of the host tissue in the micro-ecosystem that governs tumor behavior. As such, precultured heart tissue fragments (PHFs), dissected from 9-day-old chicken embryos, may be confronted with aggregates of human invasive MCF-7/6 mammary carcinoma cells in the presence of a certain concentration of a test compound. After eight days, the interaction between the cancer cells and the PHF is evaluated histologically and classified along a 5-grades subjective scale (Bracke et al., 2001). Grades III and IV are typical for invasion, while grades 0, I and II correspond to absence of invasion. Compounds that inhibit invasion of confronting cancer cells i.e. from III/IV to 0/I/II, are determined as anti-invasive. Possible alternative assays generally known in the art are the type I collagen invasion assay, wound healing assay and the matrigel invasion assay.
“Anti-invasive” refers to the ability to inhibit invasion of the tumor or cancer cell into surrounding tissue (within or outside the organ of origin). […] This screening method confronts cancer cells with a fragment of normal tissue, so as not to neglect the contribution of the host tissue in the micro-ecosystem that governs tumor behavior. The interaction between the cancer cells and the normal tissue is evaluated histologically and classified along a 5-grades subjective scale. Grades III and IV are typical for invasion, while grades 0, I and II correspond to absence of invasion. Compounds that inhibit invasion of confronting cancer cells i.e. from III/IV to 0/I/II, are determined as anti-invasive. Possible alternative assays generally known in the art are the type I collagen invasion assay and the Matrigel invasion assay.
The potency of these molecules had been evaluated by means of the chick heart invasion assay, as described herein before.

Row | Compound | anti-invasive activity class act. [2] | Actual in vitro activity class [2] | Actual class [2] | also measured
1 | COc1cc(OC)c(C(=O)/C=C/c2ccc(OC)c(OC)c2)cc1CC=C(C)C [Compound 19, (2E)-3-(3,4-dimethoxyphenyl)-1-(2′,4′-dimethoxy-5′-(3-methylbut-2-enyl)phenyl)propenone] |  |  |  | Actual class [1]: 1 (about 10)
2 | COc1ccc(C(=O)/C=C/c2ccccc2F)cc1 [Compound 55, (2E)-3-(2-Fluorophenyl)-1-(4-methoxyphenyl)propenone] | 1 (about 10) |  |  | 
3 | COc1cc(C(=O)/C=C/c2ccco2)cc(OC)c1OC [Compound 75, (2E)-3-(2-Furanyl)-1-(3,4,5-trimethoxyphenyl)propenone] | −1 (about 0.1) |  |  | 
4 | O=C(/C=C/c1ccc(F)cc1)c1ccc(F)cc1 [Compound 50, (2E)-3-(4-Fluorophenyl)-1-(4-fluorophenyl)propenone] |  | 1 (about 10) | 1 (about 10) | 
5 | O=C(/C=C/c1ccc(F)cc1)c1ccc(O)cc1 [Compound 58, (2E)-3-(4-Fluorophenyl)-1-(4-hydroxyphenyl)propenone] | 1 (about 10) |  |  | 
6 | O=C(/C=C/c1ccco1)c1ccc(F)cc1 [Compound 73, (2E)-3-(2-Furanyl)-1-(4-fluorophenyl)propenone] | 2 (about 100) |  |  | 
7 | COc1ccc(C(=O)/C=C/c2cccc(OC)c2)cc1 [Compound 41, (2E)-3-(3-Methoxyphenyl)-1-(4-methoxyphenyl)propenone] |  | 0 (about 1) | 0 (about 1) | 
8 | COc1cccc(/C=C/C(=O)c2cc3c(cc2O)OC(C)(C)C(O)C3)c1OC (stereo not drawn) [Compound 9, (2E)-1-(3,7-Dihydroxy-2,2-dimethylchroman-6-yl)-3-(2,3-dimethoxy-phenyl)propenone] |  |  |  | Actual class [1]: 1 (about 10)
9 | Cc1ccc(/C=C/C(=O)c2c(O)c3c(c4c2OC(C)(C)CC4)OC(C)(C)CC3)cc1 [Compound 4, (2E)-1-(5-Hydroxy-2,2,8,8-tetramethyl-3,4,9,10-tetrahydro-2H,8H-pyrano[2,3-f]chromen-6-yl)-3-p-tolyl-propenone] |  |  |  | Actual class [1]: 3 (>100)
10 | COc1cc(O)c(C(=O)/C=C/c2ccc(Oc3ccccc3)cc2)cc1C(c1ccccc1)c1ccccc1 [Compound 3, (2E)-1-(5-Benzhydryl-2-hydroxy-4-methoxyphenyl)-3-(4-phenoxyphenyl)propenone] |  |  |  | Actual class [1]: 3 (>100)
11 | COc1cc(OC)c(OC)cc1/C=C/C(=O)c1c(OC)cccc1OC [Compound 46, (2E)-3-(2,4,5-Trimethoxyphenyl)-1-(2,6-dimethoxyphenyl)propenone] |  | 1 (about 10) | 1 (about 10) | 
12 | COc1ccc(/C=C/C(=O)c2ccc(OC)cc2)cc1 [Compound 40, (2E)-3-(4-Methoxyphenyl)-1-(4-methoxyphenyl)propenone] |  | 1 (about 10) | 1 (about 10) | 
13 | COc1ccc(/C=C/C(=O)c2ccccc2)cc1 [Compound 39, (2E)-3-(4-Methoxyphenyl)-1-phenylpropenone] |  | 1 (about 10) | 1 (about 10) | 
14 | (2E)-1,3-diphenylpropenone [Compound 37] |  | 1 (about 10) | 1 (about 10) | 
15 | COc1cc(OC)c(C(=O)/C=C/c2cc(OC)c(OC)cc2OC)c(OC)c1 [Compound 42, (2E)-3-(2,4,5-Trimethoxyphenyl)-1-(2,4,6-trimethoxyphenyl)propenone] |  | 1 (about 10) | 1 (about 10) | 
16 | O=C(C=Cc1ccc(F)cc1)c1ccco1 [Compound 68, 1-(2-Furyl)-3-(4-fluorophenyl)propenone] | 1 (about 10) |  |  | 
17 | COc1cc(OC)c(/C=C/C(=O)c2c(OC)cccc2OC)c(OC)c1 [Compound 47, (2E)-3-(2,4,6-Trimethoxyphenyl)-1-(2,6-dimethoxyphenyl)propenone] |  | 0 (about 1) | 0 (about 1) | 
18 | COc1cc(O)c(C(=O)/C=C/c2cccc([N+](=O)[O-])c2)cc1C(c1ccccc1)c1ccccc1 [Compound 89, (2E)-1-(5-Benzhydryl-2-hydroxy-4-methoxy-phenyl)-3-(3-nitro-phenyl)-propenone] | ≧3 (>100) |  |  | 

Row | Compound | anti-invasive activity class act. [2] | Actual in vitro activity class [2] | Actual class [2] | also measured
19 | CC(C)=CCn1cc(C(=O)/C=C/c2ccc(Cl)cc2)c2ccccc21 [Compound 85, (2E)-3-(4-Chlorophenyl)-1-[1-(3-methylbut-2-enyl)-1H-indol-3-yl]propenone] | ≧2 (about 100) |  |  | 
20 | COc1cccc(OC)c1C(=O)/C=C/c1ccco1 [Compound 76, (2E)-3-(2-Furanyl)-1-(2,6-dimethoxyphenyl)propenone] | −1 (about 0.1) |  |  | 
21 | COc1ccc(C(=O)/C=C/c2ccccc2)cc1 [Compound 38, (2E)-3-phenyl-1-(4-methoxyphenyl)propenone] |  | 1 (about 10) | 1 (about 10) | 
22 | COc1ccc(C(=O)/C=C/c2cc(OC)c(OC)cc2OC)cc1 [Compound 44, (2E)-3-(2,4,5-Trimethoxyphenyl)-1-(4-methoxyphenyl)propenone] |  | 0 (about 1) | 0 (about 1) | 
23 | O=C(/C=C/c1ccoc1)c1ccc(F)cc1 [Compound 77, (2E)-3-(3-Furanyl)-1-(4-fluorophenyl)propenone] | −1 (about 0.1) |  |  | 
24 | CC(C)=CCOc1ccc(C(=O)/C=C/c2ccc(F)cc2)cc1 [Compound 62, (2E)-3-(4-Fluorophenyl)-1-[4-(3-methylbut-2-enyloxy)phenyl]propenone] | >=2 (about 100) |  |  | 
25 | COc1ccc(C(=O)/C=C/c2ccc(Cl)cc2)cc1 [Compound 52, (2E)-3-(4-chlorophenyl)-1-(4-methoxyphenyl)prop-2-en-1-one] | −2 (about 0.01) |  |  | 
26 | C=CCn1cc(C(=O)/C=C/c2ccc(Cl)cc2)c2ccccc21 [Compound 84] | ≧2 (about 100) |  |  | 
27 | COc1ccc(C(=O)C=Cc2ccco2)cc1 [Compound 74, 3-Furan-2-yl-1-(4-methoxyphenyl)propenone] | 2 (about 100) |  |  | 
28 | O=C(C=Cc1ccco1)c1ccco1 [Compound 70, 1,3-Difuran-2-yl-propenone] | −1 (about 0.1) |  |  | 
29 | O=C(/C=C/c1ccco1)c1ccccc1 [Compound 72, (2E)-3-Furan-2-yl-1-phenylpropenone] | >=2 (about 100) |  |  | 
30 | O=C(/C=C/c1cc2ccccc2o1)c1ccc(F)cc1 [Compound 78, (2E)-3-(2-Benzofuranyl)-1-(4-fluorphenyl)propenone] | 2 (about 100) |  |  | 
31 | O=C(/C=C/c1cccc(F)c1)c1ccc(F)cc1 [Compound 53, (2E)-3-(3-Fluorophenyl)-1-(4-fluorophenyl)propenone] | −1 (about 0.1) |  |  | 
32 | CC1(C)CCc2c(O)c(C(=O)/C=C/c3cccc([N+](=O)[O-])c3)c3c(c2O1)CCC(C)(C)O3 [Compound 88, (2E)-1-(5-Hydroxy-2,2,8,8-tetramethyl-3,4,9,10-tetrahydro-2H,8H-pyrano[2,3-f]chromen-6-yl)-3-(3-nitro-phenyl)propenone] | ≧3 (>100) |  |  | 
33 | COc1ccc(C(=O)/C=C/c2cc3ccccc3o2)cc1 [Compound 79] | 2 (about 100) |  |  | 
34 | COc1ccc(C(=O)/C=C/c2cccc(F)c2)cc1 [Compound 54, (2E)-3-(3-Fluorophenyl)-1-(4-methoxyphenyl)propenone] | 1 (about 10) |  |  | 
35 | COc1ccc(C(=O)/C=C/c2ccc(F)cc2)cc1 [Compound 48, (2E)-3-(4-Fluorophenyl)-1-(4-methoxyphenyl)propenone] |  | 0 (about 1) | 0 (about 1) | 
36 | COc1ccc(C(=O)/C=C/c2c(OC)cc(OC)cc2OC)cc1 [Compound 45, (2E)-1-(4-methoxyphenyl)-3-(2,4,6-trimethoxyphenyl)prop-2-en-1-one] |  | −1 (about 0.1) | −1 (about 0.1) | 
